In ChEMBL document CHEMBL6109153, “Development of Membrane-Targeting Osthole Derivatives Containing Pyridinium Quaternary Ammonium Moieties with Potent Anti-Methicillin-Resistant Staphylococcus aureus Properties” (J Med Chem, 2025):
Active and inactive are the calls of the source. The calls are words filed in the database; no cut-off is given here.

Key:
Staphylococcus aureus [1] = test: Induction of bacterial eradication in methicillin-resistant Staphylococcus aureus M11 at 8 times MIC incubated for 8 hrs by time-kill assay; type: functional, organism-based
Staphylococcus aureus [2] = test: Antibacterial activity against methicillin-resistant Staphylococcus aureus M11 infected in BALB/c mouse model of Sepsis assessed as reduction in abscess size on back at 4 mg/kg measured after 24 hrs; type: functional, organism-based
Staphylococcus aureus [3] = test: Antibacterial activity against methicillin-resistant Staphylococcus aureus M11 infected in BALB/c mouse model of Sepsis assessed as reduction in redness in inner epidermal abscesses at 4 mg/kg measured after 24 hrs; type: functional, organism-based
Staphylococcus aureus [4] = test: Antibacterial activity against methicillin-resistant Staphylococcus aureus M11 infected in BALB/c mouse model of Sepsis assessed as reduction in swelling in inner epidermal abscesses at 4 mg/kg measured after 24 hrs; type: functional, organism-based
Staphylococcus aureus [5] = test: Antibacterial activity against methicillin-resistant Staphylococcus aureus M11 infected in BALB/c mouse model of Sepsis assessed as reduction in inflammatory cell infiltration in skin tissues at 4 to 8 mg/kg measured after 24 hrs by H and E staining based analysis; type: functional, organism-based; conditions: dose 4-8 mg/kg
Staphylococcus aureus [6] = test: Antibacterial activity against methicillin-resistant Staphylococcus aureus M11 infected in BALB/c mouse model of Sepsis assessed as reduction in bacterial count in skin tissues at 4 mg/kg measured after 24 hrs relative to control; type: functional; set-up: scale not given: the % may be the effect or the level left
Staphylococcus aureus [7] = test: Antibacterial activity against methicillin-resistant Staphylococcus aureus M11 infected in BALB/c mouse model of Sepsis assessed as reduction in bacterial count in skin tissues at 8 mg/kg measured after 24 hrs relative to control; type: functional; set-up: scale not given: the % may be the effect or the level left
Staphylococcus aureus [8] = test: Antibacterial activity against methicillin-resistant Staphylococcus aureus M11 infected in BALB/c mouse model of Sepsis assessed as reduction in bacterial load in skin tissues at 4 mg/kg measured after 24 hrs; type: functional
Staphylococcus aureus [9] = test: Antibacterial activity against methicillin-resistant Staphylococcus aureus M11 infected in BALB/c mouse model of Sepsis assessed as reduction in bacterial load in skin tissues at 8 mg/kg measured after 24 hrs; type: functional
Staphylococcus aureus [10] = test: Antibacterial activity against methicillin-resistant Staphylococcus aureus M11 infected in BALB/c mouse model of Sepsis assessed as vacuolar degeneration in liver cells at 10 mg/kg, ip measured after 48 hrs; type: functional, organism-based
Staphylococcus aureus [11] = test: Antibacterial activity against methicillin-resistant Staphylococcus aureus M11 infected in BALB/c mouse model of Sepsis assessed as reduction in hepatic sinusoidal dilation at 10 mg/kg, ip measured after 48 hrs; type: functional, organism-based
Staphylococcus aureus [12] = test: Antibacterial activity against methicillin-resistant Staphylococcus aureus M11 infected in BALB/c mouse model of Sepsis assessed as reduction in hepatic congestion at 10 mg/kg, ip measured after 48 hrs; type: functional, organism-based
Staphylococcus aureus [13] = test: Antibacterial activity against methicillin-resistant Staphylococcus aureus M11 infected in BALB/c mouse model of Sepsis assessed as reduction in bacterial load in liver at 20 mg/kg, ip measured after 48 hrs; type: functional
Staphylococcus aureus [14] = test: Antibacterial activity against methicillin-resistant Staphylococcus aureus M11 infected in BALB/c mouse model of Sepsis assessed as reduction in bacterial load in spleen at 20 mg/kg, ip measured after 48 hrs; type: functional
Staphylococcus aureus [15] = test: Antibacterial activity against methicillin-resistant Staphylococcus aureus M11 infected in BALB/c mouse model of Sepsis assessed as reduction in bacterial load in kidney at 20 mg/kg, ip measured after 48 hrs; type: functional
[16] = Toxicity in BALB/c mouse model of Sepsis infected with methicillin-resistant Staphylococcus aureus M11 assessed as survival rate at 10 mg/kg, ip measured after 7 days; type: organism-based; conditions: in vivo, 168 h, time 7 day
[17] = Toxicity in BALB/c mouse model of Sepsis infected with methicillin-resistant Staphylococcus aureus M11 assessed as survival rate at 5 mg/kg, ip measured after 7 days; type: organism-based; conditions: in vivo, 168 h, time 7 day
[18] = Toxicity in BALB/c mouse model of Sepsis infected with methicillin-resistant Staphylococcus aureus M11 assessed as survival rate at 15 mg/kg, ip measured after 7 days; type: organism-based; conditions: in vivo, 168 h, time 7 day

Q: Which results are given for CN[C@H](CC(C)C)C(=O)N[C@H]1C(=O)N[C@@H](CC(N)=O)C(=O)N[C@H]2C(=O)N[C@H]3C(=O)N[C@H](C(=O)N[C@H](C(=O)O)c4cc(O)cc(O)c4-c4cc3ccc4O)[C@H](O)c3ccc(c(Cl)c3)Oc3cc2cc(c3O[C@@H]2O[C@H](CO)[C@@H](O)[C@H](O)[C@H]2O[C@H]2C[C@](C)(N)[C@H](O)[C@H](C)O2)Oc2ccc(cc2Cl)[C@H]1O [VANCOMYCIN]?
A: Activity (Staphylococcus aureus [1]): Not active; Compound Inhibited Bacterial Growth But Still Showed Surviving Bacteria Within The Detection Range After 8 H, Indicating Incomplete Bacterial Eradication; Activity (Staphylococcus aureus [2]): Active; Activity (Staphylococcus aureus [3]): Active; Activity (Staphylococcus aureus [4]): Active; Activity (Staphylococcus aureus [5]): Active; Activity (Staphylococcus aureus [6]): 97.24%; Activity (Staphylococcus aureus [7]): 99.989%; Activity (Staphylococcus aureus [8]): 1.578 log10CFU/g; Activity (Staphylococcus aureus [9]): 3.96 log10CFU/g; Activity (Staphylococcus aureus [10]): Active; Activity (Staphylococcus aureus [11]): inactive; Activity (Staphylococcus aureus [12]): inactive; Activity (Staphylococcus aureus [13]): 3.54 log10CFU/ml; Activity (Staphylococcus aureus [14]): 3.88 log10CFU/ml; Activity (Staphylococcus aureus [15]): 3.92 log10CFU/ml; Survival [16]: 77.8%; Survival [17]: 33.3%; Survival [18]: 100%
